Experimental data: patent US20140088306A1, “RADIOACTIVE FLUORINE-LABELED QUINOXALINE COMPOUND” (Nihon Medi-Physics Co., Ltd., priority 2012, published 2014)

Experiments:
[1] = tested on: Aβ plaques; test: In vitro autoradiography using postmortem brain section from Alzheimer's disease (Examples 14, 15); format: binding, human (Alzheimer's disease patient); conditions: brain section of Alzheimer's disease patient
Procedure: A postmortem autopsy brain tissue of a patient with Alzheimer's disease identified by postmortem dissection was obtained from Graduate School of Medicine, Kyoto University. The presence and location of senile plaques in the section were confirmed by immunohistochemical staining using an anti-Aβ1-42 antibody. The section was incubated together with [^18F]D1 or [^18F]D2 (0.37 MBq/100 μL) at room temperature for 1 hour. The resultant was immersed in a 50 volume % ethanol aqueous solution (2 minutes×2) and washed with water (2 minutes×2). After drying, the section was exposed to BAS imaging plate (from Fujifilm Corporation) for 1.5 hours. The image of autoradiography was obtained using BAS5000 scanner system (from Fujifilm Corporation).
A postmortem autopsy brain tissue of a patient with Alzheimer's disease identified by postmortem dissection was obtained from Graduate School of Medicine, Kyoto University, and serial sections […] of a paraffin-embedded brain tissue were used. First, they were each incubated with xylene (15 minutes×2), ethanol (1 minute×2), a 90 volume % ethanol aqueous solution (1 minute×2), and a 70 volume % ethanol aqueous solution (1 minute×1) in that order to perfectly perform deparaffinization, and then washed in water (2.5 minutes×2). Thereafter, for antibody recovery, the section was subjected to autoclave treatment for 15 minutes in 0.01 mol/L citrate buffer solution (pH 6.0). The resultant was incubated in PBS-Tween20 (5 minutes×2), and, for antibody recovery, incubated in a 90 volume % formic acid aqueous solution at room temperature for 5 minutes. The section was washed for 5 minutes with flowing tap water, and then incubated in PBS-Tween20 (2 minutes×1). The section was incubated with a mouse anti-Aβ1-42 monoclonal primary antibody (from Wako Pure Chemical Industries Ltd.) at room temperature overnight. The resultant was incubated in PBS-Tween20 (5 minutes×3) and then incubated together with biotin goat anti-mouse IgG (from Funakoshi Co., Ltd.) at room temperature for 1 hour. […]

[2] = In vivo radioactivity distribution experiment in normal mouse (Example 16); parameters: species or system ddY mice; conditions: for Radioactivity Amount, Liver: normal ddY mice, tail vein, average for 5 mice (SD)
Procedure: An ethanol (10 μL)-containing saline solution of [^18F]D1 (25.8 kBq) or [^18F]D2 (48.2 kBq) (100 μL) was injected into the tail vein of ddY mice (male, 5-week old). Five mice were used for each group and sacrificed 2, 10, 30, and 60 minutes after administration to remove major organs. The blood and organs were weighed and further measured for radioactivity using a γ counter (Wallac 1470 Wizard 3, from Perkin-Elmer). The percent injected dose per organ was calculated by comparing tissue counts with suitably diluted aliquots of the injected material. The percent injected dose/g of each sample was calculated by comparing sample counts with the counts of the diluted initial dose.

For Nc1ccc(-c2cnc3cc(OCC[18F])ccc3n2)cc1 [[^18F]D1, 4-(6-(2-[^18F]Fluoroethoxy)quinoxalin-2-yl)aniline], which “binding to / background in the white matter by autoradiography” value [1] is on record?
Its value is “high non-specific binding to the white matter”.

What about the “Radioactivity Amount, Liver” value ([2]; 2 min. after) of the same compound?
The value was 5.30 (1.33) % injected dose/g.

What about the “Radioactivity Amount, Liver” value ([2]; 10 min. after) of the same compound?
Its value is 6.58 (0.47) % injected dose/g.

What about the “Radioactivity Amount, Liver” value ([2]; 30 min. after) of the same compound?
The value was 4.90 (0.29) % injected dose/g.

And the “Radioactivity Amount, Liver” value ([2]; 60 min. after)?
The value was 4.88 (0.30) % injected dose/g.

And the “amount of radioactivity in the brain” value ([2]; mouse, in vivo)?
Its value is 2.41-3.08 % ID/g.
